PMC12715756 (ACS Chemical Neuroscience, 2025)

Legend:
DAT [1] = biological target: T1, DAT (Homo sapiens, UniProt Q01959)
NET [2] = biological target: T2, NET (Homo sapiens, UniProt P23975); test: Release (superfusion) assay, NET mediated [3H]MPP+ release; conditions: for Emax: read-out: Emax [95%-CI], NET mediated [3H]MPP+ release
DAT [3] = conditions: incubation at IC50 concentration for 60 min
male C57BL/6J mice = test: Head-twitch response (HTR); assay type: in vivo; conditions: IP, 30 min, doses based on the salt form
Procedure: (§1) Male Swiss CD-1 mice (Janvier, Le Genest, France), weighing 30–35 g and aged 6–8 weeks, were used for HLA, thigmotaxis, CPP, and core body temperature experiments. Animals were housed under temperature-controlled conditions (22 ± 1 °C) with a 12 h light/dark cycle and had free access to food and water (standard laboratory diet, Panlab SL, Barcelona, Spain). Doses for HLA, thigmotaxis, CPP, and core body temperature experiments were calculated based on the free base form of each compound. For HTR experiments, male C57BL/6J mice (6–8 weeks old) were obtained from Jackson Laboratories (Bar Harbor, ME, USA) and housed up to four per cage with a reversed light-cycle (lights on at 1900 h, off at 0700 h). Food and water were provided ad libitum, except during behavioral testing. Testing was conducted between 1000 and 1830 h. Doses for HTR experiments were calculated based on the respective salt forms of the compounds.
The HTR was assessed using a head-mounted magnet and a magnetometer detection coil. Mice were anesthetized, a small incision was made in the scalp, and a small neodymium magnet was attached to the dorsal surface of the cranium by using dental cement. Following a two week recovery period, HTR experiments were carried out in a well-lit room with at least 7 days between sessions to avoid carryover effects. Mice (N = 4–7/group) received intraperitoneal (IP) injections of vehicle (saline) or test drug (5 mL/kg injection volume), and then activity was recorded in a glass cylinder surrounded by a magnetometer coil for 30 min. Doses for HTR experiments were calculated based on the respective salt forms of the compounds. Coil voltage was low-pass filtered (1 kHz cutoff frequency), amplified, digitized (20 kHz sampling rate, 16-bit ADC resolution), and saved to disk using a Powerlab 8/35 data acquisition system with LabChart software (ver. 8.1 ADInstruments, Colorado Springs, CO, USA). To detect head twitches, events in the recordings were transformed to scalograms, deep features were extracted using the deep convolutional neural network ResNet-50, and then the images were classified using a support vector machine (SVM). Head twitch counts were analyzed using one-way ANOVA. Posthoc comparisons were made using Dunnett’s test.

[4] = biological target: T3, human organic cation transporter 1 (OCT1) (Homo sapiens, UniProt O15245); test: Uptake inhibition assay, [3H]MPP+ uptake in HEK293 cells
T3 sequence (O15245 1-554): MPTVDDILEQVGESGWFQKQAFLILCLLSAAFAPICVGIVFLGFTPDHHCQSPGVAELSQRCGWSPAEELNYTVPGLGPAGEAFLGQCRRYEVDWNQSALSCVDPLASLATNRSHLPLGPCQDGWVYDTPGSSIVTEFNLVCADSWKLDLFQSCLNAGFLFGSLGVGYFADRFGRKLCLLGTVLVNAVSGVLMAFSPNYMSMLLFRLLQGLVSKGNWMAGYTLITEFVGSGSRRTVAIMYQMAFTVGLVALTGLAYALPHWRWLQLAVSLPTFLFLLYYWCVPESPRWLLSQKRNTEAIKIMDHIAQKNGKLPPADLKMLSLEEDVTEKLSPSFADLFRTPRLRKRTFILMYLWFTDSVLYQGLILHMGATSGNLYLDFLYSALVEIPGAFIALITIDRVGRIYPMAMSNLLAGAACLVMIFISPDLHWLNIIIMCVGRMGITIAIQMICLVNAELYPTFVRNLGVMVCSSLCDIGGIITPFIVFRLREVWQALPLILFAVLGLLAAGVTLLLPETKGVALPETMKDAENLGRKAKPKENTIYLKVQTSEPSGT

NET [5] = biological target: T2, NET; test: as above; assay type: cell-based; set-up: expressed in transfected cells
DAT [6] = biological target: T1, DAT; test: cell-based; conditions: read-out: Emax [95%-CI], DAT mediated [3H]MPP+ release
OCT2 = biological target: T4, OCT2 (Homo sapiens, UniProt O15244); test: Uptake inhibition assay, [3H]MPP+ uptake in HEK293 cells
T4 sequence (O15244 1-555): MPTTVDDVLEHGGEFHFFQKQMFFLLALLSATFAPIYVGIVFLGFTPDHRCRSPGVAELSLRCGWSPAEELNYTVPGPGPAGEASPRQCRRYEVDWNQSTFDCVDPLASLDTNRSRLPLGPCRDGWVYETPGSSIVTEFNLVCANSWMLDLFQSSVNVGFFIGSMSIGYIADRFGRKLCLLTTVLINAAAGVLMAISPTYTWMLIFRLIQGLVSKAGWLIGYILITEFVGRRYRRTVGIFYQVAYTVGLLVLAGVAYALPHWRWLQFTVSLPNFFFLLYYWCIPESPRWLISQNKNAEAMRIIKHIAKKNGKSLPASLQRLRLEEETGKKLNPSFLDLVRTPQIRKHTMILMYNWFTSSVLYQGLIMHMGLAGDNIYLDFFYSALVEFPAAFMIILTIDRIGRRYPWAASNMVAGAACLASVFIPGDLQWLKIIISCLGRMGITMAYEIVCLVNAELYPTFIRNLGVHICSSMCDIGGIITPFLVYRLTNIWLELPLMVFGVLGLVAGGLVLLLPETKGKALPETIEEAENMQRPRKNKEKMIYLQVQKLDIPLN

[7] = Metabolic stability, substrate depletion in pooled human liver microsomes; conditions: human, pooled human liver microsomes
5-HT2A = biological target: T5, 5-HT2A (Homo sapiens, UniProt P28223); test: Gq dissociation BRET assay in HEK293T cells; assay type: cell-based; conditions: for EC50 / Emax ± SEM, %5-HT response 5-HT2A: Gq dissociation BRET; for Emax ± SEM, %5-HT response 5-HT2A: relative to 5-HT; for Emax: HEK-293T, read-out: Emax ± SEM, %5-HT response 5-HT2A, Gq dissociation BRET, relative to 5-HT
T5 construct: expressed in transfected cells; host or cells: HEK293T (ATCC; RRID:CVCL_0063), transient transfection
T5 sequence (P28223 whole entry): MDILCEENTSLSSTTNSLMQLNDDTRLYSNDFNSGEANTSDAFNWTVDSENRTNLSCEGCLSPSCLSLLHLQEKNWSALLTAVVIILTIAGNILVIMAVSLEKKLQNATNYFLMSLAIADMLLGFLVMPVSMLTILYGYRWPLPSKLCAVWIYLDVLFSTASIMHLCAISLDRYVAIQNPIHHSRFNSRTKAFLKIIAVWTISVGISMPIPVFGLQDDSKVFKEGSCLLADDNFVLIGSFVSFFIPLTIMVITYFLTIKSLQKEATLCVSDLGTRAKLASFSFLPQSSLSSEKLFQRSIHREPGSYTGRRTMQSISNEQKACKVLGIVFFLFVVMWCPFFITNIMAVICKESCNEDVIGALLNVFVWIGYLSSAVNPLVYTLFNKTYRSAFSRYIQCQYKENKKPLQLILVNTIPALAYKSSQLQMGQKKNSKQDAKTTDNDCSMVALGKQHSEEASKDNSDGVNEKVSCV

SERT [8] = biological target: T6, SERT (Homo sapiens, UniProt P31645); test: Uptake inhibition assay, [3H]5-HT uptake in HEK293 cells; assay type: cell-based; set-up: expressed in transfected cells
T6 sequence (P31645 whole entry, the tested form may be a part): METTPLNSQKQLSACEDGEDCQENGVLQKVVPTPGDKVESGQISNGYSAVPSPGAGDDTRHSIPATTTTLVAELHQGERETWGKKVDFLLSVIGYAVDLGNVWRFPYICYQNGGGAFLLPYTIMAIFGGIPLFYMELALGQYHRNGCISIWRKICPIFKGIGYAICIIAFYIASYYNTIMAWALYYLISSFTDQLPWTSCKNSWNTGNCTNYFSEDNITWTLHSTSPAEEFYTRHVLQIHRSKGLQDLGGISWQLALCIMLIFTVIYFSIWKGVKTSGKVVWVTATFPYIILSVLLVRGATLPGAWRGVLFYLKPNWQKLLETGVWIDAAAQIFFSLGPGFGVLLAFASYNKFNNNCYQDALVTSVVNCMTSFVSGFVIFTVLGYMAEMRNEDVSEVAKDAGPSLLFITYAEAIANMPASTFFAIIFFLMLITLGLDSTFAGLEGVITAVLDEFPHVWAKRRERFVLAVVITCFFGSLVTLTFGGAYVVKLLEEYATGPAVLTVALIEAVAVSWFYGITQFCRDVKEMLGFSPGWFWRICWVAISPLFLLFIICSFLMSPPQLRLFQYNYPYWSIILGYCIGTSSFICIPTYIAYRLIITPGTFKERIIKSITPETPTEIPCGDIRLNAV

SERT [9] = biological target: T6, SERT; test: Release (superfusion) assay, SERT mediated [3H]5-HT efflux; conditions: for Emax: read-out: Emax [95%-CI], SERT mediated [3H]5-HT efflux
5-HT2B = biological target: T7, 5-HT2B (Homo sapiens, UniProt P41595); test: Gq dissociation BRET assay in HEK293T cells; assay type: cell-based; conditions: for EC50: Gq dissociation BRET; for Emax: HEK-293T, read-out: Emax ± SEM, %5-HT response 5-HT2B
T7 construct: expressed in transfected cells; host or cells: HEK293T (ATCC; RRID:CVCL_0063), transient transfection
T7 sequence (P41595 whole entry): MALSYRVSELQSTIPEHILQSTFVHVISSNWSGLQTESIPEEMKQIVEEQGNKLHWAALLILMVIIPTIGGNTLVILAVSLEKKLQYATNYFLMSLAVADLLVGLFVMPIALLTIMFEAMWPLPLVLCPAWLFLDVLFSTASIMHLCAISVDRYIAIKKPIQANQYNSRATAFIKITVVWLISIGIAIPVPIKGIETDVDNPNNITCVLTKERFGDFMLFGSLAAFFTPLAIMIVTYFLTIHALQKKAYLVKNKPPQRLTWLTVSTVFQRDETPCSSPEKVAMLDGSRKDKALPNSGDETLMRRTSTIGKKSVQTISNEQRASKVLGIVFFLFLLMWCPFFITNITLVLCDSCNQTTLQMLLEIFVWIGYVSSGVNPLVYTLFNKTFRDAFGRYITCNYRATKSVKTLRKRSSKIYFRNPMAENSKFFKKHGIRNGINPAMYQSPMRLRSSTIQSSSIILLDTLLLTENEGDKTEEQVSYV

male Swiss CD-1 mice = test: Conditioned place preference (CPP); assay type: in vivo; conditions: 10 mg/kg i.p., compared to saline
Procedure: as §1
For this experiment, an apparatus with two distinct compartments, differing in tactile and visual cues, connected by a central corridor, was used. The conditioned place preference (CPP) procedure consisted of three phases: preconditioning, conditioning, and postconditioning. In the preconditioning phase (day 0), mice were placed in the middle of the corridor and allowed to freely explore both compartments for 15 min. The time spent in each compartment was recorded and monitored using specific tracking software (Smart 3.0 Panlab, Barcelona, Spain). In the conditioning phase (day 1–day 8), access to the corridor was closed. […] On alternate days, , mice received a saline i.p. injection and were placed in the other compartment for 30 min. Mice in the control group received a saline injection in every session. The compartments and sessions in which the drug was administered were randomized. In the postconditioning phase (test day), the same conditions as the preconditioning phase were reinstated. A preference score was determined by calculating the difference in time spent in the drug-paired compartment between the post- and preconditioning phases.

[10] = test system: NGF-differentiated PC12 cells; test: Cytotoxicity, WST-8 assay; conditions: 24 hours
[11] = pHLM; literature data ref 9 (Alberto-Silva et al., 2024); cited from earlier work

T2 sequence (P23975 whole entry, the tested form may be a part): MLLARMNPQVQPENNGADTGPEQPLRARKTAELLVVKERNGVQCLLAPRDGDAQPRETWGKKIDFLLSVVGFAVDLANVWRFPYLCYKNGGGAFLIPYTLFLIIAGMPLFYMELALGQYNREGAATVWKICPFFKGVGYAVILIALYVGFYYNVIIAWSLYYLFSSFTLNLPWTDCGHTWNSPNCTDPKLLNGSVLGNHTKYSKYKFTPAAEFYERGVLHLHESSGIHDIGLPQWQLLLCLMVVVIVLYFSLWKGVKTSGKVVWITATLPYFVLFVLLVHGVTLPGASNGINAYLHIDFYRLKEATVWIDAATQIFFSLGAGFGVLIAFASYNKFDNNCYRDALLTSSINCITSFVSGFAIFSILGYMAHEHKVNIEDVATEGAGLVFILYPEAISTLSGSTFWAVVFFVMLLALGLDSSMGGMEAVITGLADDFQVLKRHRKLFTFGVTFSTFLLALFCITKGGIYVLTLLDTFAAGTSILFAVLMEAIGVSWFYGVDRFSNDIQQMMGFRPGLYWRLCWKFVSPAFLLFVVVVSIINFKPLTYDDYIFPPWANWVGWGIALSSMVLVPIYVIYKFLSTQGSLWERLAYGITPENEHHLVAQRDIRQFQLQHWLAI
T1 sequence (Q01959 whole entry, the tested form may be a part): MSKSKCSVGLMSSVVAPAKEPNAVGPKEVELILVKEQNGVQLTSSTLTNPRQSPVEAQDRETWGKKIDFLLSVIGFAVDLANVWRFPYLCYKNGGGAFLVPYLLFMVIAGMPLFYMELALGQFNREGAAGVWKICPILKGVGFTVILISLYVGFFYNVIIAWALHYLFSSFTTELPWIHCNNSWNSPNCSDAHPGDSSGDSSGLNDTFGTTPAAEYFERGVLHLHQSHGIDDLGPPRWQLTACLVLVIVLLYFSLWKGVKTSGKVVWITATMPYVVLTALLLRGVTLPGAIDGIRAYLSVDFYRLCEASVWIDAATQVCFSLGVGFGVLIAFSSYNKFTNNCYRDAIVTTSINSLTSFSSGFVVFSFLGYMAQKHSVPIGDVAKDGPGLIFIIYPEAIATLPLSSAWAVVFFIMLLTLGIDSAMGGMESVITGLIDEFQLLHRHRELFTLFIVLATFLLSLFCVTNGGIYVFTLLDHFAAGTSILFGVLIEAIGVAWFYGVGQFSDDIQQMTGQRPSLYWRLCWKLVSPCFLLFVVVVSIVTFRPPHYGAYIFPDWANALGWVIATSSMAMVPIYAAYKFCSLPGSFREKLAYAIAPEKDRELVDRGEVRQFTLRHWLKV

Row | SMILES | type of releaser at DAT (DAT [1]) | EC50 (NET [2]) [nM] | type of releaser at NET (NET [2]) | Emax (NET [2]) [%] | HTR counts (male C57BL/6J mice) | IC50 [4] [µM] | IC50 (NET [5]) [µM] | Emax (DAT [6]) [%] | IC50 (OCT2) [µM] | EC50 (5-HT2A; EC50 5-HT2A) [µM] | Emax ± SEM, %5-HT response 5-HT2A (5-HT2A) [%] | Emax (5-HT2A) [%] | IC50 (SERT [8]) [µM] | EC50 (SERT [9]) [µM] | type of releaser at SERT (SERT [9]) | Emax (SERT [9]) [%] | EC50 (5-HT2B; EC50 5-HT2B) [nM] | Emax (5-HT2B) [%] | further results
1 | CC(N)Cc1ccc2c(c1)OCO2 (stereo not shown) [MDA, 3,4-Methylenedioxyamphetamine, reference compound] | partial releasers | 350 | full releasers | 126 | dose-related increase in HTR counts peaking at 3 mg/kg | 6.93 ± 2.63 | 3.33 ± 0.47 | 67.2 | 5.13 ± 1.18 | 0.905 | 87.8 ± 2.4 | > 70 | 22.9 ± 2.27 | 4.35 | partial releasers | 45.5 | 139 | 104 ± 4.9 | transporter expression on plasma membrane level (DAT [3]): expression levels slightly increased; half-life at 0.5 μM [7]: > 150 min
2 | CNC(C)Cc1ccc2c(c1)OCO2 (stereo not shown) [MDMA, 3,4-Methylenedioxymethamphetamine, reference compound] | partial releasers | 730 | full releasers | 111 | Neither MDMA nor SDMA induced an appreciable increase in HTR counts | 5.09 ± 3.14 | 3.17 ± 0.72 | 43.1 | 5.3 ± 0.25 | 3.13 | 66.0 ± 2.3 | < 70 | 6.47 ± 0.93 | 1.95 | partial releasers | 39.3 | 531 | 59.9 ± 5.1 | rewarding effects (CPP preference score) (male Swiss CD-1 mice): induce rewarding effects; concentration at which cytotoxicity starts [10]: 2 mM; in vitro half-life (t1/2) [11]: > 150 min; EC50 (5-HT2A; pEC50 ± SEM 5-HT2A): 3.09 µM; EC50 (5-HT2B; pEC50 ± SEM 5-HT2B): 525 nM
